Assay results as given in ChEMBL document CHEMBL1145498, “A systematic interaction map of validated kinase inhibitors with Ser/Thr kinases” (Proc Natl Acad Sci U S A, 2007).

target: 5'-AMP-activated protein kinase catalytic subunit alpha-2 (Homo sapiens) (UniProt P54646)
Sequence (P54646 whole entry, looked up): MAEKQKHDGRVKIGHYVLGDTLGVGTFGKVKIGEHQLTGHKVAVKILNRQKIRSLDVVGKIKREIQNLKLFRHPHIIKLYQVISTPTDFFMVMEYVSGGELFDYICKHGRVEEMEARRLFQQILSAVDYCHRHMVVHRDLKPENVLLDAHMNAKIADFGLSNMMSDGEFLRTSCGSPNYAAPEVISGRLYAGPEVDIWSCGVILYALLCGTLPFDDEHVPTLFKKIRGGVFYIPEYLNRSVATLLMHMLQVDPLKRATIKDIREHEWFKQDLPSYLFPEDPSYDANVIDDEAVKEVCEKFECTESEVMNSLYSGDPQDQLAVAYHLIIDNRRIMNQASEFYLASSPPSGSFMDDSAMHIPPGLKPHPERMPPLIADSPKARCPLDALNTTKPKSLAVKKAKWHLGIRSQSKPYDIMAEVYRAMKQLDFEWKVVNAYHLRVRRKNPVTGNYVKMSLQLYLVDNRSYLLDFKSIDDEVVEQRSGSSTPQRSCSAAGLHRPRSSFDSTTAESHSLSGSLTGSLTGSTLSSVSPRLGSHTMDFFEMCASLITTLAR

ΔTm [°C] | Compound
10.1 | Nc1nc(Nc2ccc(S(N)(=O)=O)cc2)nn1C(=S)Nc1c(F)cccc1F
-0.3 | COc1cc2ncnc(Nc3ccc(F)c(Cl)c3)c2cc1OCCCN1CCOCC1
2.4 | O=C1Nc2cc(Br)ccc2/C1=C1/Nc2ccccc2/C1=N\O
0.2 | O=c1c(-c2ccc(F)cc2)c(-c2ccncc2)[nH]n1-c1ccc(Cl)cc1

target: Calcium/calmodulin-dependent protein kinase type II subunit alpha (Homo sapiens) (UniProt Q9UQM7)

ΔTm [°C] | Compound
3.3 | Nc1nc(Nc2ccc(S(N)(=O)=O)cc2)nn1C(=S)Nc1c(F)cccc1F
0.3 | COc1cc2ncnc(Nc3ccc(F)c(Cl)c3)c2cc1OCCCN1CCOCC1
0.1 | O=C1Nc2cc(Br)ccc2/C1=C1/Nc2ccccc2/C1=N\O
0.5 | O=c1c(-c2ccc(F)cc2)c(-c2ccncc2)[nH]n1-c1ccc(Cl)cc1

target: T1, Calcium/calmodulin-dependent protein kinase type IV (Homo sapiens) (UniProt Q16566)
T1 sequence (whole entry): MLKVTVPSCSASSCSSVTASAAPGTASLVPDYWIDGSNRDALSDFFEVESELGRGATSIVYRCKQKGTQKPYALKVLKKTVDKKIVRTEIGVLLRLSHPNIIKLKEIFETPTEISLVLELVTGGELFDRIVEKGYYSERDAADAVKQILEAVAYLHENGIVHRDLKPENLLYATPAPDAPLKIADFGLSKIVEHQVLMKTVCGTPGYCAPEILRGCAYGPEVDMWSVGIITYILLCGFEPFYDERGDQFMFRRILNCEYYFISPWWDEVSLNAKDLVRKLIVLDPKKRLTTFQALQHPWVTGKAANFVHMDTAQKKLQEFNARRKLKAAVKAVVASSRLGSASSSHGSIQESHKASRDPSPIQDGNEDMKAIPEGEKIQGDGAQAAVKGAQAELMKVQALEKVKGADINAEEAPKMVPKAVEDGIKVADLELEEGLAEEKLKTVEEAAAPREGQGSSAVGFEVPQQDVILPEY

ΔTm [°C] | Compound
-0.2 | Nc1nc(Nc2ccc(S(N)(=O)=O)cc2)nn1C(=S)Nc1c(F)cccc1F
0.6 | COc1cc2ncnc(Nc3ccc(F)c(Cl)c3)c2cc1OCCCN1CCOCC1
-0.5 | O=C1Nc2cc(Br)ccc2/C1=C1/Nc2ccccc2/C1=N\O
0.4 | O=c1c(-c2ccc(F)cc2)c(-c2ccncc2)[nH]n1-c1ccc(Cl)cc1

target: Calcium/calmodulin-dependent protein kinase kinase 2 (Homo sapiens, UniProt Q96RR4)
Sequence (Q96RR4 2-588 limits assumed): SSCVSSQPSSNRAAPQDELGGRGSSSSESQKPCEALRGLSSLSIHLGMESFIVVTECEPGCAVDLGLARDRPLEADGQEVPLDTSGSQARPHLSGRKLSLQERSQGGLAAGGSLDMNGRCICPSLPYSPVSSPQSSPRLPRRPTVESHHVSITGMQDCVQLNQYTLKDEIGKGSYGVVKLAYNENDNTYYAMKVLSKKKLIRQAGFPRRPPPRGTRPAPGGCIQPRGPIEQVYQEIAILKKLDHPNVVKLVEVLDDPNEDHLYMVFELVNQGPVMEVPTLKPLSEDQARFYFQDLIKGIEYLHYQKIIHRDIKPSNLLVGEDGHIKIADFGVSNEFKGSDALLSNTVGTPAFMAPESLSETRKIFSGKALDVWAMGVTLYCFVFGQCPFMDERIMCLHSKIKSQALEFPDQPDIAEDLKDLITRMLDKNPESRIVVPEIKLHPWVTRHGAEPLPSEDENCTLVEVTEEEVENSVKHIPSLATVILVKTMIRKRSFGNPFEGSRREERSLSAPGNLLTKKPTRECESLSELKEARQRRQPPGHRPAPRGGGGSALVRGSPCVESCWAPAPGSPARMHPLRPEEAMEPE

ΔTm [°C] | Compound
8.6 | Nc1nc(Nc2ccc(S(N)(=O)=O)cc2)nn1C(=S)Nc1c(F)cccc1F
0.7 | COc1cc2ncnc(Nc3ccc(F)c(Cl)c3)c2cc1OCCCN1CCOCC1
6.3 | O=C1Nc2cc(Br)ccc2/C1=C1/Nc2ccccc2/C1=N\O
0.2 | O=c1c(-c2ccc(F)cc2)c(-c2ccncc2)[nH]n1-c1ccc(Cl)cc1

target: Serine/threonine-protein kinase Chk2 (Homo sapiens, UniProt O96017)

ΔTm [°C] | Compound
8.6 | Nc1nc(Nc2ccc(S(N)(=O)=O)cc2)nn1C(=S)Nc1c(F)cccc1F
3.1 | COc1cc2ncnc(Nc3ccc(F)c(Cl)c3)c2cc1OCCCN1CCOCC1
2.3 | O=C1Nc2cc(Br)ccc2/C1=C1/Nc2ccccc2/C1=N\O
0.3 | O=c1c(-c2ccc(F)cc2)c(-c2ccncc2)[nH]n1-c1ccc(Cl)cc1

target: Dual specificity protein kinase CLK1 (Homo sapiens) (UniProt P49759)
Sequence (P49759 whole entry, looked up): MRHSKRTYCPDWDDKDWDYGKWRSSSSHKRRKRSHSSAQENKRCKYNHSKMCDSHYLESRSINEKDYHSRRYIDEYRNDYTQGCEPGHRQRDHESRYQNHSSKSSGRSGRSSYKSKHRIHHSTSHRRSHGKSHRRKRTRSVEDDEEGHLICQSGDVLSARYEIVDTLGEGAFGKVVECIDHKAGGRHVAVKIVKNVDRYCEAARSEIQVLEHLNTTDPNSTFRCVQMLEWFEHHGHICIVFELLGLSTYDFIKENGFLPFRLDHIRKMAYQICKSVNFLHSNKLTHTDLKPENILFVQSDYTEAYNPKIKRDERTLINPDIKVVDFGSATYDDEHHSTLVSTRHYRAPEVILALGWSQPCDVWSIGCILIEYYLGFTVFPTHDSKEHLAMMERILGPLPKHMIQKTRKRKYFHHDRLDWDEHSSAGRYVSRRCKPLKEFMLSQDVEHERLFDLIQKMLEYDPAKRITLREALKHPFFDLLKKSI

ΔTm [°C] | Compound
11.5 | Nc1nc(Nc2ccc(S(N)(=O)=O)cc2)nn1C(=S)Nc1c(F)cccc1F
0.7 | COc1cc2ncnc(Nc3ccc(F)c(Cl)c3)c2cc1OCCCN1CCOCC1
0 | O=C1Nc2cc(Br)ccc2/C1=C1/Nc2ccccc2/C1=N\O
1 | O=c1c(-c2ccc(F)cc2)c(-c2ccncc2)[nH]n1-c1ccc(Cl)cc1

target: Casein kinase I isoform gamma-2 (Homo sapiens) (UniProt P78368)
Sequence (P78368 whole entry, looked up, canonical isoform): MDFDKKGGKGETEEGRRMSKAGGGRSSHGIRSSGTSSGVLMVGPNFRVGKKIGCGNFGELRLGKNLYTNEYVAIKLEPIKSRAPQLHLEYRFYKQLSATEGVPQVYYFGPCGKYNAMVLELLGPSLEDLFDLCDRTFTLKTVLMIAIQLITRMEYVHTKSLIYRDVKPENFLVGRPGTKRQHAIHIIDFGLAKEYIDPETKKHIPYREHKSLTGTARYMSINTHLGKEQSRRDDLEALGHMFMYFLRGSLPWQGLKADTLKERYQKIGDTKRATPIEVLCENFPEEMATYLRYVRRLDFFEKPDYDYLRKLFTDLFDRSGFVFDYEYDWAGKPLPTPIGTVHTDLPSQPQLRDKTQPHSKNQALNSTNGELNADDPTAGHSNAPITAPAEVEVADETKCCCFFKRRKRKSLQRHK

ΔTm [°C] | Compound
4.9 | Nc1nc(Nc2ccc(S(N)(=O)=O)cc2)nn1C(=S)Nc1c(F)cccc1F
-0.2 | COc1cc2ncnc(Nc3ccc(F)c(Cl)c3)c2cc1OCCCN1CCOCC1
0.3 | O=C1Nc2cc(Br)ccc2/C1=C1/Nc2ccccc2/C1=N\O
0.7 | O=c1c(-c2ccc(F)cc2)c(-c2ccncc2)[nH]n1-c1ccc(Cl)cc1

target: Casein kinase I isoform gamma-3 (Homo sapiens) (UniProt Q9Y6M4)
Sequence (Q9Y6M4 whole entry, looked up, canonical isoform): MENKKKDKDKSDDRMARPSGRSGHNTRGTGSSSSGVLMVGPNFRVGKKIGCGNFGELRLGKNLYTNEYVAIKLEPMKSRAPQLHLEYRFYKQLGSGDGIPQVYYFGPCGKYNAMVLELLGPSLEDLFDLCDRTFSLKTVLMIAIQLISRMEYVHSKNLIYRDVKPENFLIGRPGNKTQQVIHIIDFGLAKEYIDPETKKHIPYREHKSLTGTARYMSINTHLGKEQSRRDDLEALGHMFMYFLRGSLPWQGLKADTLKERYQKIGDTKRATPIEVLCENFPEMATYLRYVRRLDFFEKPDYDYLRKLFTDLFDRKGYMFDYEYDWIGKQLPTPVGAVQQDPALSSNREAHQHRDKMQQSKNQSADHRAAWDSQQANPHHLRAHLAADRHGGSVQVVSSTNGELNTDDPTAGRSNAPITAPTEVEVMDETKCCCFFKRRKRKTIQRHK

ΔTm [°C] | Compound
5.3 | Nc1nc(Nc2ccc(S(N)(=O)=O)cc2)nn1C(=S)Nc1c(F)cccc1F
0.3 | COc1cc2ncnc(Nc3ccc(F)c(Cl)c3)c2cc1OCCCN1CCOCC1
-1.1 | O=C1Nc2cc(Br)ccc2/C1=C1/Nc2ccccc2/C1=N\O
0.5 | O=c1c(-c2ccc(F)cc2)c(-c2ccncc2)[nH]n1-c1ccc(Cl)cc1

target: Tyrosine-protein kinase JAK1 (Homo sapiens) (UniProt P23458)

ΔTm [°C] | Compound
10.4 | Nc1nc(Nc2ccc(S(N)(=O)=O)cc2)nn1C(=S)Nc1c(F)cccc1F
1.2 | COc1cc2ncnc(Nc3ccc(F)c(Cl)c3)c2cc1OCCCN1CCOCC1
7.1 | O=C1Nc2cc(Br)ccc2/C1=C1/Nc2ccccc2/C1=N\O
0.3 | O=c1c(-c2ccc(F)cc2)c(-c2ccncc2)[nH]n1-c1ccc(Cl)cc1

target: T2, Dual specificity mitogen-activated protein kinase kinase 6 (Homo sapiens) (UniProt P52564)
T2 sequence (whole entry): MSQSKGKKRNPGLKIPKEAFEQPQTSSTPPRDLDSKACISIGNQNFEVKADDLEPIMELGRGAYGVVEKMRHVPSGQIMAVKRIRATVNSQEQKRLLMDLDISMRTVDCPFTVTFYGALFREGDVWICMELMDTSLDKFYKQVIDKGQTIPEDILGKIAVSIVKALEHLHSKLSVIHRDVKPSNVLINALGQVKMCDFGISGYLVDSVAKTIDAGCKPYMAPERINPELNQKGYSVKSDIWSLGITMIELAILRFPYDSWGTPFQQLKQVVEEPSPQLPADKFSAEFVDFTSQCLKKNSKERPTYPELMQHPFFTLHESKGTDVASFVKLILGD

ΔTm [°C] | Compound
7.6 | Nc1nc(Nc2ccc(S(N)(=O)=O)cc2)nn1C(=S)Nc1c(F)cccc1F
0.1 | COc1cc2ncnc(Nc3ccc(F)c(Cl)c3)c2cc1OCCCN1CCOCC1
0.2 | O=C1Nc2cc(Br)ccc2/C1=C1/Nc2ccccc2/C1=N\O
0.3 | O=c1c(-c2ccc(F)cc2)c(-c2ccncc2)[nH]n1-c1ccc(Cl)cc1

target: Mitogen-activated protein kinase 3 (Homo sapiens, UniProt P27361)
Sequence (P27361 whole entry): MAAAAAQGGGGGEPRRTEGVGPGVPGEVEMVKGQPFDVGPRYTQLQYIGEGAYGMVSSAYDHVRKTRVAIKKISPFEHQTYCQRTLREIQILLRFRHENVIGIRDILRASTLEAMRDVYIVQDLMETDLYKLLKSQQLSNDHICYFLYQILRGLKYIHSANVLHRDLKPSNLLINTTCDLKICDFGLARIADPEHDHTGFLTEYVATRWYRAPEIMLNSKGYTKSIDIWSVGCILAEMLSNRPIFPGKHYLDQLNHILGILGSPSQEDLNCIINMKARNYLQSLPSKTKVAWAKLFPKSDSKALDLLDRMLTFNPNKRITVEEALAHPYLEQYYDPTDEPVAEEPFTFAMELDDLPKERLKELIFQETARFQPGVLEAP

ΔTm [°C] | Compound
3.6 | Nc1nc(Nc2ccc(S(N)(=O)=O)cc2)nn1C(=S)Nc1c(F)cccc1F
-0.2 | COc1cc2ncnc(Nc3ccc(F)c(Cl)c3)c2cc1OCCCN1CCOCC1
0.7 | O=C1Nc2cc(Br)ccc2/C1=C1/Nc2ccccc2/C1=N\O
1.2 | O=c1c(-c2ccc(F)cc2)c(-c2ccncc2)[nH]n1-c1ccc(Cl)cc1

target: Serine/threonine-protein kinase Nek6 (Homo sapiens) (UniProt Q9HC98)

ΔTm [°C] | Compound
0.2 | Nc1nc(Nc2ccc(S(N)(=O)=O)cc2)nn1C(=S)Nc1c(F)cccc1F
-0.4 | COc1cc2ncnc(Nc3ccc(F)c(Cl)c3)c2cc1OCCCN1CCOCC1
-0.4 | O=C1Nc2cc(Br)ccc2/C1=C1/Nc2ccccc2/C1=N\O
0.8 | O=c1c(-c2ccc(F)cc2)c(-c2ccncc2)[nH]n1-c1ccc(Cl)cc1

target: T3, 3-phosphoinositide-dependent protein kinase 1 (Homo sapiens) (UniProt O15530)
T3 sequence (whole entry): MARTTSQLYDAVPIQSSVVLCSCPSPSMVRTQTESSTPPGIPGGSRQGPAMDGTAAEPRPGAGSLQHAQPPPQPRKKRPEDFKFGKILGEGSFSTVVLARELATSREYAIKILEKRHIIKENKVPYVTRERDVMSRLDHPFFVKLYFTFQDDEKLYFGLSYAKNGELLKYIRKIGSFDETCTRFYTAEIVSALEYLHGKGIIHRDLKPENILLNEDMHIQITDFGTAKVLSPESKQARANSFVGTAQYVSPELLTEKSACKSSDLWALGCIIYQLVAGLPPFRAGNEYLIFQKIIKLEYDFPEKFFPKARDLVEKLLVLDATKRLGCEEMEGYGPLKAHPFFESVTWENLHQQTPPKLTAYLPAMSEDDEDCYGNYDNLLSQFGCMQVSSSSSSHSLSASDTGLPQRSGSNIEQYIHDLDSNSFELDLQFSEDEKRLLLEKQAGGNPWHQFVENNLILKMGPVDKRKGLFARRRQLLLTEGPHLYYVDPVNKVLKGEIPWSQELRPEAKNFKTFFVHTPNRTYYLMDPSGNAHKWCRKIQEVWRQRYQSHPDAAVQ

ΔTm [°C] | Compound
0.4 | Nc1nc(Nc2ccc(S(N)(=O)=O)cc2)nn1C(=S)Nc1c(F)cccc1F
-0.5 | COc1cc2ncnc(Nc3ccc(F)c(Cl)c3)c2cc1OCCCN1CCOCC1
-0.6 | O=C1Nc2cc(Br)ccc2/C1=C1/Nc2ccccc2/C1=N\O
-1.2 | O=c1c(-c2ccc(F)cc2)c(-c2ccncc2)[nH]n1-c1ccc(Cl)cc1

target: cAMP-dependent protein kinase catalytic subunit alpha (Homo sapiens) (UniProt P17612)

ΔTm [°C] | Compound
4.1 | Nc1nc(Nc2ccc(S(N)(=O)=O)cc2)nn1C(=S)Nc1c(F)cccc1F
1.1 | COc1cc2ncnc(Nc3ccc(F)c(Cl)c3)c2cc1OCCCN1CCOCC1
0.5 | O=C1Nc2cc(Br)ccc2/C1=C1/Nc2ccccc2/C1=N\O
1.5 | O=c1c(-c2ccc(F)cc2)c(-c2ccncc2)[nH]n1-c1ccc(Cl)cc1

target: Serine/threonine-protein kinase RIO2 (Homo sapiens) (UniProt Q9BVS4)

ΔTm [°C] | Compound
-0.4 | Nc1nc(Nc2ccc(S(N)(=O)=O)cc2)nn1C(=S)Nc1c(F)cccc1F
2 | COc1cc2ncnc(Nc3ccc(F)c(Cl)c3)c2cc1OCCCN1CCOCC1
4.4 | O=C1Nc2cc(Br)ccc2/C1=C1/Nc2ccccc2/C1=N\O
-0.2 | O=c1c(-c2ccc(F)cc2)c(-c2ccncc2)[nH]n1-c1ccc(Cl)cc1

target: Ribosomal protein S6 kinase alpha-3 (Homo sapiens) (UniProt P51812)
Sequence (P51812 whole entry): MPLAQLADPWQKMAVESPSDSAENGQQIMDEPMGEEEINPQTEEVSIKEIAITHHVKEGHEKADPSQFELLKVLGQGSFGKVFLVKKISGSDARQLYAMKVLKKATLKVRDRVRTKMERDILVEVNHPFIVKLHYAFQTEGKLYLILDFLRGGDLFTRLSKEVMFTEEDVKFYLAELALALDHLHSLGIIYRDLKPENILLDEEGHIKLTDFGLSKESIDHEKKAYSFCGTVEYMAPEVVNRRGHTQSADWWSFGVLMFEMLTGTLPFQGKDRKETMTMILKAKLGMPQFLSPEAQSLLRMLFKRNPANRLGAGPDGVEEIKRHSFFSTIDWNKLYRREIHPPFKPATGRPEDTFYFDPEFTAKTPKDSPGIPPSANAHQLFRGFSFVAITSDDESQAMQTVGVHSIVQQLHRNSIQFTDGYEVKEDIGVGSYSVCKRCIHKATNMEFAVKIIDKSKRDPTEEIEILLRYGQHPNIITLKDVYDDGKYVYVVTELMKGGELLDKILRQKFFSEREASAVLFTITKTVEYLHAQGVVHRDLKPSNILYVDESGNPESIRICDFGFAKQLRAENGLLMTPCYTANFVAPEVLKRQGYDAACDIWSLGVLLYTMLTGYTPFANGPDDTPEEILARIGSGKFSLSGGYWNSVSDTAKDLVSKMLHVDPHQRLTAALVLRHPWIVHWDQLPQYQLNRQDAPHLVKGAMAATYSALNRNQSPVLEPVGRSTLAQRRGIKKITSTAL

ΔTm [°C] | Compound
9.6 | Nc1nc(Nc2ccc(S(N)(=O)=O)cc2)nn1C(=S)Nc1c(F)cccc1F
1.3 | COc1cc2ncnc(Nc3ccc(F)c(Cl)c3)c2cc1OCCCN1CCOCC1
0.8 | O=C1Nc2cc(Br)ccc2/C1=C1/Nc2ccccc2/C1=N\O
1.2 | O=c1c(-c2ccc(F)cc2)c(-c2ccncc2)[nH]n1-c1ccc(Cl)cc1

target: STE20-like serine/threonine-protein kinase (Homo sapiens) (UniProt Q9H2G2)
Sequence (Q9H2G2 whole entry, looked up): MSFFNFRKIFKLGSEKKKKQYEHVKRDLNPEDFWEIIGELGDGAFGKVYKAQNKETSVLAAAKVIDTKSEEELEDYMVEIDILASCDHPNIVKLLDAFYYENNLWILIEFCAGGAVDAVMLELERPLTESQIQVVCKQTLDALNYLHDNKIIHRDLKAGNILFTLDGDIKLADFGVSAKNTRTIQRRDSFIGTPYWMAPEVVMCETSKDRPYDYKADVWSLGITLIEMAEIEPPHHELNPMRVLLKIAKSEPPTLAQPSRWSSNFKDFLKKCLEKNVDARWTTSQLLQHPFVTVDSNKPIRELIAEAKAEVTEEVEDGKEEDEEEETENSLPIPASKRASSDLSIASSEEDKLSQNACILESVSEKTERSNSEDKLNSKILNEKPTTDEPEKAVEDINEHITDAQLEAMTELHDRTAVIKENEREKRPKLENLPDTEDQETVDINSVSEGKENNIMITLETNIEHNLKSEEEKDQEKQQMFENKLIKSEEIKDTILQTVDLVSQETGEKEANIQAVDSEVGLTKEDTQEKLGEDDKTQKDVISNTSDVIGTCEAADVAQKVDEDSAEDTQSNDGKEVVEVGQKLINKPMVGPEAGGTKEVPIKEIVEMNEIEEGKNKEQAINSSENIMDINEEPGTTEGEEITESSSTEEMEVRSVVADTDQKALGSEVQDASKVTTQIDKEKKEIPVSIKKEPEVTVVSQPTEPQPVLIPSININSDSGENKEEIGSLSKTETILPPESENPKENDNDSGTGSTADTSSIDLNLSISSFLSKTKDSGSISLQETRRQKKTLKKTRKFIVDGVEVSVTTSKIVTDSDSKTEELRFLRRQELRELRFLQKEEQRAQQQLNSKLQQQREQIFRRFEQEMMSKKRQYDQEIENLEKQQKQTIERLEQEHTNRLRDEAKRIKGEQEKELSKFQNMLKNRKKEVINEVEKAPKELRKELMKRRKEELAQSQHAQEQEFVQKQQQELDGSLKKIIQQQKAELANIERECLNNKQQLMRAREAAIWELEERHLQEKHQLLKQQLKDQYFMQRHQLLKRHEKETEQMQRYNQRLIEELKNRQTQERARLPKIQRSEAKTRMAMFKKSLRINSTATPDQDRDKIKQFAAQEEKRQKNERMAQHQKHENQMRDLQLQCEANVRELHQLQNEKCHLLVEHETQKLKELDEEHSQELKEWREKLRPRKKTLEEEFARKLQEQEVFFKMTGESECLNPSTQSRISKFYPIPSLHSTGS

ΔTm [°C] | Compound
12.1 | Nc1nc(Nc2ccc(S(N)(=O)=O)cc2)nn1C(=S)Nc1c(F)cccc1F
7.8 | COc1cc2ncnc(Nc3ccc(F)c(Cl)c3)c2cc1OCCCN1CCOCC1
4.4 | O=C1Nc2cc(Br)ccc2/C1=C1/Nc2ccccc2/C1=N\O
2.4 | O=c1c(-c2ccc(F)cc2)c(-c2ccncc2)[nH]n1-c1ccc(Cl)cc1

target: TRAF2 and NCK-interacting protein kinase (Homo sapiens) (UniProt Q9UKE5)

ΔTm [°C] | Compound
9.9 | Nc1nc(Nc2ccc(S(N)(=O)=O)cc2)nn1C(=S)Nc1c(F)cccc1F
-1 | COc1cc2ncnc(Nc3ccc(F)c(Cl)c3)c2cc1OCCCN1CCOCC1
1.6 | O=C1Nc2cc(Br)ccc2/C1=C1/Nc2ccccc2/C1=N\O
-0.2 | O=c1c(-c2ccc(F)cc2)c(-c2ccncc2)[nH]n1-c1ccc(Cl)cc1

target: T4, Serine/threonine-protein kinase VRK3 (Homo sapiens) (UniProt Q8IV63)
T4 sequence (whole entry): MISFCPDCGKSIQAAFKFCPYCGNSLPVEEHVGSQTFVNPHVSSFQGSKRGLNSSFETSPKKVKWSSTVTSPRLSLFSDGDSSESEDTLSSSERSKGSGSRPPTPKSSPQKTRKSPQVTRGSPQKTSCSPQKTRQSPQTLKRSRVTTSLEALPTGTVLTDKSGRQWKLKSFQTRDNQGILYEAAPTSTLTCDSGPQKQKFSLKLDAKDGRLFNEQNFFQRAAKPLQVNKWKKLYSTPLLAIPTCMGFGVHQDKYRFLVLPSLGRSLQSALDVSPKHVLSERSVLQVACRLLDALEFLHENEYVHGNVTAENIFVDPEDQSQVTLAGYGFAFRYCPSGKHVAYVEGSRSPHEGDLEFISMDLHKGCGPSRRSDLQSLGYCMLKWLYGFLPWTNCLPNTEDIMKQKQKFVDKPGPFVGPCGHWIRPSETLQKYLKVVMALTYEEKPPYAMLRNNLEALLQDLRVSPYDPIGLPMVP

ΔTm [°C] | Compound
0.9 | Nc1nc(Nc2ccc(S(N)(=O)=O)cc2)nn1C(=S)Nc1c(F)cccc1F
0.6 | COc1cc2ncnc(Nc3ccc(F)c(Cl)c3)c2cc1OCCCN1CCOCC1
1.3 | O=C1Nc2cc(Br)ccc2/C1=C1/Nc2ccccc2/C1=N\O
-1.1 | O=c1c(-c2ccc(F)cc2)c(-c2ccncc2)[nH]n1-c1ccc(Cl)cc1
